Consider six compounds from patent publication US12655108B2, “Heterocyclic compound as TYK2 pseudokinase domain inhibitor, synthetic method, and use” (ZHEJIANG WENDA PHARMA TECHNOLOGY LTD., priority 2021, dated 2026).

The subject of experiment [1] is pSTAT5 in CD3+ cells (IFN-α stimulated). Description: Inhibition of IFN-α-induced pSTAT5 expression in CD3+ cells of human whole blood, FACS detection. The note with it: 0.25 h, fresh human whole blood, IFN-α 20 ng/ml, 15 minutes. Type of experiment: cell-based. The protocol: The Inhibitory Effect of Compounds on the expression of pSTAT5 in CD3+ Cells Using FACS Detection • 1. Experimental Materials and instruments: • 1.1. Experimental reagents • DMSO, Sigma, Cat #D2650-100 ml, stored at room temperature. • Perm buffer III, BD Biosciences, Cat #558050, stored at 4° C. • Lyse/Fix buffer, BD Biosciences, Cat #558049, stored at room temperature. • EDTA, Invitrogen, Cat #15575-038, stored at room temperature. • PBS, Hyclone, Cat #SH30256.01, stored at 4° C. • PE Mouse Anti-Human CD3, BD Biosciences, Cat #555333, stored at 4° C. • Mouse anti-human Phospho-STATS (pY694) (Alexa Fluor® 647 Conjugate), BD Biosciences, Cat #562076, stored at 4° C. • IFN-α, Biolegend, Cat #592702 • 1.2 Experimental consumables • Microplate, 96 Well, PP, v-bottom, Greiner, Cat #GN651201-100EA. • 5 ml polystyrene round bottom tube, FALCON, Cat #04318011. • 96 square well storage plate, Thermo, Cat #AB-0661. • 96-well plate, Corning, Cat #3599. • 1.3 Instruments • CO2 cell incubator: MCO-15AC (Thermo) • Pipette: 0.2-10 μL, 20-200 μL, 200-1000 μL (Thermo) • Multichannel pipette: 0.2-10 μL, 5-50 μL, 20-300 μL (Raining) • Centrifuge: Thermo Centrifuge ST 40R; Thermo LEGEND Micro 21R • Water system: Millipore Milli-Q Reference system • Freezer: Haier ultralow temperature freezer • Haier 4 centigrade refrigerator • Haier −20 centigrade freezer • Vortex: EARTH REQUIRED • Plate Shaker: QI LIN BEI ER; MH-2 • Flow Cytometer: BD FACSVerse™ Flow Cytometer • 2 Experimental method: • 2.1 Compound Dilution • 1) On the day of experiment, the compound was prepared into a 10 mM solution with DMSO, diluted to 1.5 mM with DMSO, and then diluted to 8 gradient concentrations with 3-fold dilutions. • 2) 5 μl of diluted compound was transferred into 120 ul of DPBS solution with 0.1% BSA. • 3) Positive and negative control groups were set up, with an addition of 0.5% DMSO to the positive and negative control groups. • 2.2 Experimental procedure • 1) 67.5 ul of fresh human whole blood was added to the 96-well cell culture plate. • 2) 3.5 ul of diluted compound was added and mixed well. • 3) Incubating in a 37° C. incubator for 60 minutes. • 4) IFN-α was diluted in DPBS containing 0.1% BSA to 400 ng/ml, and PE anti-hCD3 antibody was diluted in DPBS containing 0.1% BSA to 5-fold. After the above 60-minute incubation, diluted PE anti-hCD3 antibody was added at 5 ul per well and diluted IFN-α was added at 4 ul per well, i.e., the final concentration of IFN-α per well was 20 ng/ml. • 5) Incubating in a 37° C. incubator for 15 minutes. • 6) All cells were transferred to a 96-well deep well plate and 1 ml of 37° C. preheated lysis/fix buffer was added. • 7) Incubating at 37° C. in dark for 10 minutes. • 8) Centrifuging at 600 g for 5 minutes and then the supernatant was discarded. Washing by adding 1 ml PBS for twice and centrifuging. • 9) 1 ml of Perm buffer III was added to cell precipitation. • 10) Incubating at 37° C. in dark for 30 minutes. • 11) Centrifuging at 600 g for 5 minutes and then the supernatant was discarded. Washing by adding 1 ml PBS for twice and centrifuging. • 12) APC anti-human pSTAT5 antibody was diluted in staining buffer, and then added to cell wells at 100 ul per well and mixed well. • 13) Incubating at room temperature for 40 minutes. • 14) Staining buffer was added and washed twice, 1 ml for each well, centrifuging at 600 g for 5 minutes. • 15) After discarding the supernatant, the cell precipitation was resuspended in 300 ul of staining buffer. • 16) Sample loading and analysing in a flow cytometer.

The next experiment addresses T1, TYK2(JH1) (Homo sapiens, UniProt P29597).
T1 construct: TYK2-JH1 (the kinase domain of TYK2)
T1 sequence (P29597 897-1176 limits assumed): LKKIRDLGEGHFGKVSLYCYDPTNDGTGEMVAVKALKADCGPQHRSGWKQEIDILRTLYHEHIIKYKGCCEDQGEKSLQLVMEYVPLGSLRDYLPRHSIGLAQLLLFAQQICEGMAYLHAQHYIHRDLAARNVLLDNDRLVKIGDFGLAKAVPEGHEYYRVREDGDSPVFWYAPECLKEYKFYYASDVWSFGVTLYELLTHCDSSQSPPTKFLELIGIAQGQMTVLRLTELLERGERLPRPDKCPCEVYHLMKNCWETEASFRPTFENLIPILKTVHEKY
Description: Kinase (JH1) experiment, TYK2(JH1). Type of experiment: biochemical. The method, then:
(§1) • 1. Experimental method • 1.1. Pseudokinase (JH2) experiment operation was as follows: • 1.1.1. The compound was dissolved with DMSO to a storage concentration of 10 mM. • 1.1.2. A compound concentration of 200 times the final concentration was prepared in a compound dilution plate, which was diluted from the highest concentration point with a total of 4 concentration points using the 27 times dilution method, and then transferred to the Echo plate. • 1.1.3. The compound was flushed from the Echo plate to the 384 well experimental plate using an Echo instrument, thereby obtaining a total of 11 concentration points of the compound with three-fold dilution matrix. • 1.1.4. 5 ul of TYK2-JH2 or JAK1-JH2 pseudokinase, 3 times the final concentration, was added to the 384-well experimental plate. • 1.1.5. 5 ul of Tb, 3 times the final concentration, was added to the 384-well experimental plate. • 1.1.6. 5 ul of Tracer, 3 times the final concentration, was added to the 384-well experimental plate. • 1.1.7. Centrifuging for 30 seconds and incubating at room temperature for 60 minutes. • 1.1.8. The fluorescence ratio of 520 nm to 495 nm was read using Envision Microplate Reader (PerkinElmer). • 1.2. Kinase (JH1) experiment operation was as follows: • 1.2.1. […] The fluorescence ratio at 665 nm and 615 nm were read using Envision Microplate Reader (PerkinElmer). • 1.3. […]

A further experiment deals with TYK2(JH2) (Homo sapiens, UniProt P29597). The experiment is described as follows: Pseudokinase (JH2) experiment with Tb/Tracer, TYK2-JH2. Type of experiment: binding. The method, then:
as §1

The target in the next experiment is T2, JAK1(JH1) (Homo sapiens, UniProt P23458).
T2 construct: JAK1-JH1 (the kinase domain of JAK1)
Description: Kinase (JH1) experiment, JAK1(JH1). Type of experiment: biochemical. The method, then: as §1

Another experiment concerns the target JAK1(JH2) (Homo sapiens, UniProt P23458). Description: Pseudokinase (JH2) experiment with Tb/Tracer, JAK1-JH2. Type of experiment: binding. The protocol: as §1
In a further experiment the target is T3, JAK2(JH1) (Homo sapiens, UniProt O60674).
T3 construct: JAK2-JH1 (the kinase domain of JAK2)
Description: Kinase (JH1) experiment, JAK2(JH1). Type of experiment: biochemical. The method, then:
as §1

A further experiment concerns the target T4, JAK3(JH1) (Homo sapiens, UniProt P52333).
T4 construct: JAK3-JH1 (the kinase domain of JAK3)
Description: Kinase (JH1) experiment, JAK3(JH1). Type of experiment: biochemical. The method, then: as §1

The mark [2] stands for this setting: selectivity ratio versus TYK2-JH2.

T3 sequence (O60674 849-1124 limits assumed): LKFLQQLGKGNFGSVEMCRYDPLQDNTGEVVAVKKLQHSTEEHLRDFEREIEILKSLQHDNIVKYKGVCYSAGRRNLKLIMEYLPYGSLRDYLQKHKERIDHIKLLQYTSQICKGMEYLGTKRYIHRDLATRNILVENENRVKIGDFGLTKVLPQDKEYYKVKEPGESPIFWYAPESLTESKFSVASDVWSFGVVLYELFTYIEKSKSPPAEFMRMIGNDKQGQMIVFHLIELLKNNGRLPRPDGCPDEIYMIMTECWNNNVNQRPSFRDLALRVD
T2 sequence (P23458 875-1153 limits assumed): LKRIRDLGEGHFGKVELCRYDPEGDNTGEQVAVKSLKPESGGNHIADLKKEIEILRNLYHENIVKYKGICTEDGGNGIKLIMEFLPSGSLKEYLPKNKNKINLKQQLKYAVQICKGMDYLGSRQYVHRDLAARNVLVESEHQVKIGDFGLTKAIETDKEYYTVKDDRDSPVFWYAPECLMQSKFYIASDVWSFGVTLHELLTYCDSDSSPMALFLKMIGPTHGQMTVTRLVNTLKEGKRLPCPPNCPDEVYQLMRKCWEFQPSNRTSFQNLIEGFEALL
T4 sequence (P52333 822-1111 limits assumed): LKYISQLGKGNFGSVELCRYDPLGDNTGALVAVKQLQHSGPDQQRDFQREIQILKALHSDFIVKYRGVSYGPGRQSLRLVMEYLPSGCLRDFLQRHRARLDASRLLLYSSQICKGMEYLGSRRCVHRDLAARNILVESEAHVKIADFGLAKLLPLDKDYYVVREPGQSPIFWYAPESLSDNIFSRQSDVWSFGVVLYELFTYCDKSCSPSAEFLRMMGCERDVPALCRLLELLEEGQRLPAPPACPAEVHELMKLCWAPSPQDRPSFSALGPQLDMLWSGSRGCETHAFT
JAK1(JH2), sequence (P23458 583-855 limits assumed): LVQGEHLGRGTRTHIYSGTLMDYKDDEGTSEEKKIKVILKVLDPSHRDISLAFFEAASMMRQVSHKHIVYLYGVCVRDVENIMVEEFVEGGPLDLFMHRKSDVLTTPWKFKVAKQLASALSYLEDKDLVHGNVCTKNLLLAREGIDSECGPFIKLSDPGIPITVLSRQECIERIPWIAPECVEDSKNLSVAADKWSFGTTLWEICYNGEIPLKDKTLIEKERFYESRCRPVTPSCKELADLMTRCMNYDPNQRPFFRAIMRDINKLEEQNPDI
TYK2(JH2), sequence (P29597 589-875 limits assumed): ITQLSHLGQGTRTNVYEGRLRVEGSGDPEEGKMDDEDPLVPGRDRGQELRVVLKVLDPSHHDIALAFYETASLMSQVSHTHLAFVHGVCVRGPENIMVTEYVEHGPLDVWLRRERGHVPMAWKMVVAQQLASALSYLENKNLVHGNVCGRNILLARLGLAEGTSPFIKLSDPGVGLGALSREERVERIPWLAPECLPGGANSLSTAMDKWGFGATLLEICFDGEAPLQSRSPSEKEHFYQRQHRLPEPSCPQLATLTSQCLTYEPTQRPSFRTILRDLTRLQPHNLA

The IC50 is the concentration that gives 50% inhibition. The low end stands for inhibition by little substance, the high end for a need for much substance. Turning to `[2H]C([2H])([2H])NC(=O)c1nnc(NC(=O)C2CC2)cc1Nc1nccnc1S(=O)(=O)C1CC1` [Compound 2], in experiment [1], the IC50 stood at 867 nM.

With `[2H]C([2H])([2H])NC(=O)c1cnc(NC(=O)C2CC2)cc1Nc1ncccc1S(=O)(=O)C1CC1` [Compound 6], in experiment [1], the IC50 was 128 nM.

Compound `[2H]C([2H])([2H])NC(=O)c1nnc(NC(=O)C2CC23CC3)cc1Nc1ncccc1S(=O)(=O)C1CC1` (stereo not drawn) [Compound 4] registered an IC50 in experiment [1] of 168 nM.

`[2H]C([2H])([2H])NC(=O)c1nnc(NC(=O)C2CC23CC3)cc1Nc1nccnc1S(=O)(=O)C1CC1` (stereo not drawn) [Compound 5] registered a 50% inhibitory concentration (IC50) in experiment [1] of 2110 nM.

In the case of `[2H]C([2H])([2H])NC(=O)c1nnc(NC(=O)C2CC2)cc1Nc1ncccc1S(=O)(=O)C1CC1` [Compound 3], the IC50 in experiment [1] is 64 nM; at TYK2(JH1) (kinase domain), 4310 nM; at TYK2(JH2) (pseudokinase domain), 0.32 nM; against JAK1(JH1) (kinase domain), 3190 nM; against JAK1(JH2) (pseudokinase domain), 53.1 nM; at JAK2(JH1) (kinase domain) it was 2810 nM. Half-maximal inhibition against JAK3(JH1) (kinase domain) (IC50) required 2380 nM. Further, at TYK2(JH1) (setting [2]), the “IC50Other/IC50TYK2-JH2, TYK2(JH1)” value is reported as 13480. The “IC50Other/IC50TYK2-JH2, TYK2(JH2)” value on TYK2(JH2) (reference ratio, TYK2-JH2 versus itself) amounted to 1. Further, the “IC50Other/IC50TYK2-JH2, JAK1(JH1)” value on JAK1(JH1) (setting [2]) came out at 9955. For the same compound, the “IC50Other/IC50TYK2-JH2, JAK1(JH2)” value on JAK1(JH2) (setting [2]) is on record as 166. The “IC50Other/IC50TYK2-JH2, JAK2(JH1)” value on JAK2(JH1) (setting [2]) is given as 8790. Besides, on JAK3(JH1) (setting [2]), the “IC50Other/IC50TYK2-JH2, JAK3(JH1)” value is reported as 7432.

Compound `[2H]C([2H])([2H])NC(=O)c1nnc(NC(=O)C2CC2)cc1Nc1ccccc1S(=O)(=O)C1CC1` [Compound 1] gave an IC50 in experiment [1] of 2800 nM.
